Experimental data as given in article PMC9898036, “VIP152 is a selective CDK9 inhibitor with pre-clinical in vitro and in vivo efficacy in chronic lymphocytic leukemia” (Leukemia, 2022).

What was measured:
Type in all cases: binding
[1] = target: human kinome (Homo sapiens, UniProt O00329); test: DiscoverX KINOMEscan kinase profiling (468 assays); details: read-out: Percent Control
Experimental: (§1) Kinomescan Kinase Profiling Assay
(§2) Kinomescan Assay was performed at DiscoverRX and described in Fabian, et al. 2005, Nat.
(§3) Biotechnol. In brief, kinases were produced and subsequently tagged with DNA for qPCR detection.
(§4) Streptavidin-coated magnetic beads were bound to biotinylated kinase ligands to serve as a solid support.
(§5) VIP152 was dissolved in DMSO and tested across a 10 serial threefold dilution set and compared to a test
(§6) compound and a DMSO control.
(§7) Kinome map was produced via TreeSpot
(§8) Analysis from DiscoverRX. […]

[2] = target: human kinome (Homo sapiens, UniProt O14578); test: DiscoverX KINOMEscan kinase profiling (468 assays); details: CIT; 100 nM; read-out: Percent Control
Experimental: as §1, §2, §3, §4, §5, §6, §7, §8

[3] = target: human kinome (Homo sapiens, UniProt O95747); test: DiscoverX KINOMEscan kinase profiling (468 assays); details: read-out: Percent Control
Chain of human kinome (Homo sapiens, UniProt O95747) (O95747 whole entry): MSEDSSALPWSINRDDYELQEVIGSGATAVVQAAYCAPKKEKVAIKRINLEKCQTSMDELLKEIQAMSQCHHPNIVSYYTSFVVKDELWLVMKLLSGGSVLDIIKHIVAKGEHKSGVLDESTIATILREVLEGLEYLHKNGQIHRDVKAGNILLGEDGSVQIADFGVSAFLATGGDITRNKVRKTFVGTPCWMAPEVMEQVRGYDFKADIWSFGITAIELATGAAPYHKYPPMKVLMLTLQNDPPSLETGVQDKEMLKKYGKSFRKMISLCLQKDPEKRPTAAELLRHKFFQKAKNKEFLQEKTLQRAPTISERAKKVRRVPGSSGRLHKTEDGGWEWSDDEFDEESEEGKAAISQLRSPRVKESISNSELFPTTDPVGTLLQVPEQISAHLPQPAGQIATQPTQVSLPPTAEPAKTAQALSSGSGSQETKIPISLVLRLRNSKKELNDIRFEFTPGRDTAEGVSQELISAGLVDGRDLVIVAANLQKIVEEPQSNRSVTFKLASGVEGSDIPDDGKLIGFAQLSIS
Experimental: as §1, §2, §3, §4, §5, §6, §7, §8

[4] = target: human kinome (Homo sapiens, UniProt O95835); test: DiscoverX KINOMEscan kinase profiling (468 assays); details: LATS1; 100 nM; read-out: Percent Control
Experimental: as §1, §2, §3, §4, §5, §6, §7, §8

[5] = target: human kinome (Homo sapiens, UniProt P06213); test: DiscoverX KINOMEscan kinase profiling (468 assays); details: INSR; 100 nM; read-out: Percent Control
Experimental: as §1, §2, §3, §4, §5, §6, §7, §8

[6] = target: human kinome (Homo sapiens, UniProt P0C264); test: DiscoverX KINOMEscan kinase profiling (468 assays); details: kinase SgK110 (Entrez SgK110); compound concentration 1000 nM; read-out: Percent Control
Experimental: as §1, §2, §3, §4, §5, §6, §7, §8

[7] = target: human kinome (Homo sapiens, UniProt P10721, T670I/V559D); test: DiscoverX KINOMEscan kinase profiling (468 assays); details: KIT(V559D,T670I); 100 nM; read-out: Percent Control
Experimental: as §1, §2, §3, §4, §5, §6, §7, §8

[8] = target: human kinome (Homo sapiens, UniProt P10721, V559D/V654A); test: DiscoverX KINOMEscan kinase profiling (468 assays); details: KIT(V559D,V654A); 100 nM; read-out: Percent Control
Experimental: as §1, §2, §3, §4, §5, §6, §7, §8

[9] = target: human kinome (Homo sapiens, UniProt P21802); test: DiscoverX KINOMEscan kinase profiling (468 assays); details: FGFR2; 100 nM; read-out: Percent Control
Experimental: as §1, §2, §3, §4, §5, §6, §7, §8

[10] = target: human kinome (Homo sapiens, UniProt P22455); test: DiscoverX KINOMEscan kinase profiling (468 assays); details: FGFR4; 100 nM; read-out: Percent Control
Experimental: as §1, §2, §3, §4, §5, §6, §7, §8

[11] = target: human kinome (Homo sapiens, UniProt P36897); test: DiscoverX KINOMEscan kinase profiling (468 assays); details: kinase TGFBR1 (Entrez TGFBR1); compound concentration 1000 nM; read-out: Percent Control
Chain of human kinome (Homo sapiens, UniProt P36897) (P36897 34-503): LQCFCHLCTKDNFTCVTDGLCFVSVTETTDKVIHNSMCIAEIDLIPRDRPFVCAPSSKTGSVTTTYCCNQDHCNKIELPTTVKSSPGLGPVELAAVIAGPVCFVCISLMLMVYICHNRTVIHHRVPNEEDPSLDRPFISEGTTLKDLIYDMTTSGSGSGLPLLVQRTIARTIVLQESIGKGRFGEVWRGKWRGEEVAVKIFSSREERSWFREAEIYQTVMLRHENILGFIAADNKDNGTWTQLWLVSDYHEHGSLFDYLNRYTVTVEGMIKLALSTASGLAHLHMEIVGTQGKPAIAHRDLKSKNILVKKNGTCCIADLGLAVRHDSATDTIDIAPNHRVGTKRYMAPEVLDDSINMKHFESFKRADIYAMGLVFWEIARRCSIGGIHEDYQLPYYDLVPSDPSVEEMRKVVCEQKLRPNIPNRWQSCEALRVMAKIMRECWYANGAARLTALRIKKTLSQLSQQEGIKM
Experimental: as §1, §2, §3, §4, §5, §6, §7, §8

[12] = target: human kinome (Homo sapiens, UniProt P42336, Q546K); test: DiscoverX KINOMEscan kinase profiling (468 assays); details: read-out: Percent Control
Chain of human kinome (Homo sapiens, UniProt P42336, Q546K) (P42336 whole entry Q546K): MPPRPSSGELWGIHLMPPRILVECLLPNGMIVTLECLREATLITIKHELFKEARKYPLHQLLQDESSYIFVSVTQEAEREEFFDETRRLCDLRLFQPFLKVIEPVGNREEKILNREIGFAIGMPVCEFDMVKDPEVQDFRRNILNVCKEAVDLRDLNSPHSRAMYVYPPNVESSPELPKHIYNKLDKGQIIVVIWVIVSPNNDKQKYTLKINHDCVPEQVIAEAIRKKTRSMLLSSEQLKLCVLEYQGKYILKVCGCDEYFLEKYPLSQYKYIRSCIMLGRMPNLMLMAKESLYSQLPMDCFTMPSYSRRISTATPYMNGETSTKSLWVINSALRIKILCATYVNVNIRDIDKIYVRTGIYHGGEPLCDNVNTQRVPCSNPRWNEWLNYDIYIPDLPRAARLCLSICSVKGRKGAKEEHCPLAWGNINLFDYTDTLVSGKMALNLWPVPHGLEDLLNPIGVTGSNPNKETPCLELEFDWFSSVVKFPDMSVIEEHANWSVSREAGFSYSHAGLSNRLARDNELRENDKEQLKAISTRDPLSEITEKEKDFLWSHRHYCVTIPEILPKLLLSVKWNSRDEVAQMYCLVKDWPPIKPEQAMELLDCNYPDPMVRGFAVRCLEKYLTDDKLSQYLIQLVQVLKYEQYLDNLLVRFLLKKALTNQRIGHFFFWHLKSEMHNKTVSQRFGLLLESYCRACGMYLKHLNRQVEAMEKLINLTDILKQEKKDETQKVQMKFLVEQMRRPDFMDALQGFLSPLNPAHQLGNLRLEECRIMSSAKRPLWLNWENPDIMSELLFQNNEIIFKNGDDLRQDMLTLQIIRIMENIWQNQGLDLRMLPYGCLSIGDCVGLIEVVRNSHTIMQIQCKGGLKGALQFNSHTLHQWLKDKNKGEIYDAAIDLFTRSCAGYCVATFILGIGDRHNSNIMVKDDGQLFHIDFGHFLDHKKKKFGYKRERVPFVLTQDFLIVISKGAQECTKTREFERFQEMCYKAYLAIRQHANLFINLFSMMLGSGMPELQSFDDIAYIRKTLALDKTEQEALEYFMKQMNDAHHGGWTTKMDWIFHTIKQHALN
Experimental: as §1, §2, §3, §4, §5, §6, §7, §8

[13] = target: human kinome (Homo sapiens, UniProt P49759); test: DiscoverX KINOMEscan kinase profiling (468 assays); details: CLK1; 100 nM; read-out: Percent Control
Experimental: as §1, §2, §3, §4, §5, §6, §7, §8

[14] = target: human kinome (Homo sapiens, UniProt Q02763); test: DiscoverX KINOMEscan kinase profiling (468 assays); details: kinase TIE2 (Entrez TEK); compound concentration 1000 nM; read-out: Percent Control
Experimental: as §1, §2, §3, §4, §5, §6, §7, §8

[15] = target: human kinome (Homo sapiens, UniProt Q13237); test: DiscoverX KINOMEscan kinase profiling (468 assays); details: read-out: Percent Control
Chain of human kinome (Homo sapiens, UniProt Q13237) (Q13237 whole entry): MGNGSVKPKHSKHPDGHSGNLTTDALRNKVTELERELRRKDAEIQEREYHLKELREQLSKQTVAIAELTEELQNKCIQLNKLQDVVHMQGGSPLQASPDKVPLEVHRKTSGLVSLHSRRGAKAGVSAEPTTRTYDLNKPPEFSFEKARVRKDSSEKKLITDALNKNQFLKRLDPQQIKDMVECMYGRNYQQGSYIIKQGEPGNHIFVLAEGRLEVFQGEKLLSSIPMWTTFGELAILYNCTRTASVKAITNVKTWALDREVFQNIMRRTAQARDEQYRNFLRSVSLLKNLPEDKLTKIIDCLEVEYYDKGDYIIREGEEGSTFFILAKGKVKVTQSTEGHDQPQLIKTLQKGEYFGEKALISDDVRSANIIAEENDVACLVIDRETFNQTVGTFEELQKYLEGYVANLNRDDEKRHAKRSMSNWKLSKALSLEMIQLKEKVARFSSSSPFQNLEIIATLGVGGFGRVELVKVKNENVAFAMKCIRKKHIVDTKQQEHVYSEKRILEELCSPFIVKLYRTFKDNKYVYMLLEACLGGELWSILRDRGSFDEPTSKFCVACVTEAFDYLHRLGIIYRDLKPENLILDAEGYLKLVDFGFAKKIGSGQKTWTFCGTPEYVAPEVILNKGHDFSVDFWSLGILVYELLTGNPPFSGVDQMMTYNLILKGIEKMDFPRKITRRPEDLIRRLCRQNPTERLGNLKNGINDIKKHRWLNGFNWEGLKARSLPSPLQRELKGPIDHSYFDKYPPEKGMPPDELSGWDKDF
Experimental: as §1, §2, §3, §4, §5, §6, §7, §8

[16] = target: human kinome (Homo sapiens, UniProt Q13546); test: DiscoverX KINOMEscan kinase profiling (468 assays); details: kinase RIPK1 (Entrez RIPK1); compound concentration 1000 nM; read-out: Percent Control
Experimental: as §1, §2, §3, §4, §5, §6, §7, §8

[17] = target: human kinome (Homo sapiens, UniProt Q16584); test: DiscoverX KINOMEscan kinase profiling (468 assays); details: MLK3 (Entrez MAP3K11); 100 nM; read-out: Percent Control
Experimental: as §1, §2, §3, §4, §5, §6, §7, §8

[18] = target: human kinome (Homo sapiens, UniProt Q6P2M8); test: DiscoverX KINOMEscan kinase profiling (468 assays); details: CAMK1B (Entrez PNCK); 100 nM; read-out: Percent Control
Experimental: as §1, §2, §3, §4, §5, §6, §7, §8

[19] = target: human kinome (Homo sapiens, UniProt Q6PHR2); test: DiscoverX KINOMEscan kinase profiling (468 assays); details: kinase ULK3 (Entrez ULK3); compound concentration 1000 nM; read-out: Percent Control
Experimental: as §1, §2, §3, §4, §5, §6, §7, §8

[20] = target: human kinome (Homo sapiens, UniProt Q7L7X3); test: DiscoverX KINOMEscan kinase profiling (468 assays); details: kinase TAOK1 (Entrez TAOK1); compound concentration 1000 nM; read-out: Percent Control
Experimental: as §1, §2, §3, §4, §5, §6, §7, §8

[21] = target: human kinome (Homo sapiens, UniProt Q8IY84); test: DiscoverX KINOMEscan kinase profiling (468 assays); details: read-out: Percent Control
Chain of human kinome (Homo sapiens, UniProt Q8IY84) (Q8IY84 whole entry): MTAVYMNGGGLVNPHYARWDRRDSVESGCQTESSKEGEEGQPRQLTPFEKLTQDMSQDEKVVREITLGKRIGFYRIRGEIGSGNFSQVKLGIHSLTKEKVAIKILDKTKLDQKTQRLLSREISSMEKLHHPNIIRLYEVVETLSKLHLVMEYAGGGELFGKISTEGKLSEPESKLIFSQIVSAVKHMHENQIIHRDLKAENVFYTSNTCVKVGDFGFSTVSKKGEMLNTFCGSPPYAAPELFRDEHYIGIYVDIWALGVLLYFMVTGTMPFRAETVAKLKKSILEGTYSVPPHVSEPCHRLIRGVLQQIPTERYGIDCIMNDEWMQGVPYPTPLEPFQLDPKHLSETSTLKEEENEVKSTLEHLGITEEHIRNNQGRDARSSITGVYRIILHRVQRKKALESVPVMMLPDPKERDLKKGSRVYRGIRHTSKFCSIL
Experimental: as §1, §2, §3, §4, §5, §6, §7, §8

[22] = target: human kinome (Homo sapiens, UniProt Q9H1R3); test: DiscoverX KINOMEscan kinase profiling (468 assays); details: read-out: Percent Control
Chain of human kinome (Homo sapiens, UniProt Q9H1R3) (Q9H1R3 whole entry): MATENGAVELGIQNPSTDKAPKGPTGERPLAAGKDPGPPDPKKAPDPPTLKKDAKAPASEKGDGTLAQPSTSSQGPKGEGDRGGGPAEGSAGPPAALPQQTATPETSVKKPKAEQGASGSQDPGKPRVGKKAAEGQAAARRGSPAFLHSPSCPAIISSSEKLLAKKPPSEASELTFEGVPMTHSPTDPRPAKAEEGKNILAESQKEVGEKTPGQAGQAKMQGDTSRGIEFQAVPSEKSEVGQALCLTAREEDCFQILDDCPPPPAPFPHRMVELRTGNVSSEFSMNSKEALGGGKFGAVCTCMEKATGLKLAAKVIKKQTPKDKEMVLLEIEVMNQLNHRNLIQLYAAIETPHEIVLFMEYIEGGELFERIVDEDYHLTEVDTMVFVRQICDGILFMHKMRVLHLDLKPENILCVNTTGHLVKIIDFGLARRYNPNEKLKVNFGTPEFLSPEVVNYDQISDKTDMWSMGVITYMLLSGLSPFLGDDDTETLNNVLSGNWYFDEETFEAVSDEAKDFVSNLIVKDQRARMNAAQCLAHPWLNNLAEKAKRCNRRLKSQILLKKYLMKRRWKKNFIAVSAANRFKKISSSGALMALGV
Experimental: as §1, §2, §3, §4, §5, §6, §7, §8

[23] = target: human kinome (Homo sapiens, UniProt Q9H4A3); test: DiscoverX KINOMEscan kinase profiling (468 assays); details: kinase WNK1 (Entrez WNK1); compound concentration 1000 nM; read-out: Percent Control
Experimental: as §1, §2, §3, §4, §5, §6, §7, §8

[24] = target: human kinome (Homo sapiens, UniProt Q9P0L2); test: DiscoverX KINOMEscan kinase profiling (468 assays); details: MARK1; 100 nM; read-out: Percent Control
Experimental: as §1, §2, §3, §4, §5, §6, §7, §8

[25] = target: human kinome (Homo sapiens, UniProt Q9P2K8, S808G); test: DiscoverX KINOMEscan kinase profiling (468 assays); details: GCN2(Kin.Dom.2,S808G) (Entrez EIF2AK4); 100 nM; read-out: Percent Control
Experimental: as §1, §2, §3, §4, §5, §6, §7, §8

[26] = target: human kinome (Homo sapiens, UniProt Q9UHD2); test: DiscoverX KINOMEscan kinase profiling (468 assays); details: kinase TBK1 (Entrez TBK1); compound concentration 1000 nM; read-out: Percent Control
Experimental: as §1, §2, §3, §4, §5, §6, §7, §8

[27] = target: human kinome (Homo sapiens, UniProt Q9Y2H9); test: DiscoverX KINOMEscan kinase profiling (468 assays); details: MAST1; 100 nM; read-out: Percent Control
Experimental: as §1, §2, §3, §4, §5, §6, §7, §8

[28] = target: PFPK5(P.falciparum) (Plasmodium falciparum, UniProt P61075); test: DiscoverX KINOMEscan kinase profiling: PFPK5(P.falciparum); details: PFPK5(P.falciparum) (Entrez MAL13P1.279); 100 nM; read-out: Percent Control
[29] = target: TRKC (Homo sapiens, UniProt Q16288); test: KINOMEscan: TRKC; details: 100 nM, read-out: Percent Control

Chain of human kinome (Homo sapiens, UniProt O00329) (O00329 whole entry): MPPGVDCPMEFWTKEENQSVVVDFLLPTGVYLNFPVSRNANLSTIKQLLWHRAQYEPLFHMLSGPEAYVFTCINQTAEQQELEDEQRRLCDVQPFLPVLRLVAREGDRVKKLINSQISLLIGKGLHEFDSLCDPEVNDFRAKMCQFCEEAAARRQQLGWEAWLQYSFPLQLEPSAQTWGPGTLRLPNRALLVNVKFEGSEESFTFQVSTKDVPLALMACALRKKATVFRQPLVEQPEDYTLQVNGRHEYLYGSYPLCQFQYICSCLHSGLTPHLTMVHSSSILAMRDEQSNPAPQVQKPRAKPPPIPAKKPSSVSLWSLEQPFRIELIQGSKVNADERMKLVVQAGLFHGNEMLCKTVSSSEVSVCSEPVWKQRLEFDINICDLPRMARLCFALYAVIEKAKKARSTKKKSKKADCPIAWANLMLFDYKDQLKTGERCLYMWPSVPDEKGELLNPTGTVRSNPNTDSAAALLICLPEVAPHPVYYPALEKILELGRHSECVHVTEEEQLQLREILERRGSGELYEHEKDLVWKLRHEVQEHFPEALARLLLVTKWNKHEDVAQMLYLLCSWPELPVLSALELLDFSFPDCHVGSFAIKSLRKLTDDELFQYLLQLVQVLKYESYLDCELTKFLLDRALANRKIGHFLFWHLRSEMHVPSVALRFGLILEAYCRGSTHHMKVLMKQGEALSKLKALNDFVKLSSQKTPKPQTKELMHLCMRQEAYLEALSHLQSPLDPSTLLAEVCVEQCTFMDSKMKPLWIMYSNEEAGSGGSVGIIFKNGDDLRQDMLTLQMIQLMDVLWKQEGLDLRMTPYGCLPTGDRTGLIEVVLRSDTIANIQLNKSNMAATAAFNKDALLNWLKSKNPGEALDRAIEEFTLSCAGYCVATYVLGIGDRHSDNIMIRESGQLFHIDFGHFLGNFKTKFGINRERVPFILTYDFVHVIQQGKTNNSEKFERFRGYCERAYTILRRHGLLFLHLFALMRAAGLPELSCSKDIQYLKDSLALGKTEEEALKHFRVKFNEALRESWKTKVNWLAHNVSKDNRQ

## COc1cc(F)ccc1-c1cc(Nc2cc(CS(C)(=N)=O)ccn2)ncc1F (centres unmarked) [VIP152]
[1]; PIK3CD, 100 nM
  remaining binding at 0.1 µM: 100%
[1]; kinase PIK3CD (Entrez PIK3CD), compound concentration 1000 nM
  remaining binding at 1 µM: 75%
[2]
  remaining binding at 0.1 µM: 100%
[3]; OSR1 (Entrez OXSR1), 100 nM
  remaining binding at 0.1 µM: 100%
[3]; kinase OSR1 (Entrez OXSR1), compound concentration 1000 nM
  remaining binding at 1 µM: 100%
[4]
  remaining binding at 0.1 µM: 100%
[5]
  remaining binding at 0.1 µM: 100%
[6]
  remaining binding at 1 µM: 100%
[7]
  remaining binding at 0.1 µM: 100%
[8]
  remaining binding at 0.1 µM: 100%
[9]
  remaining binding at 0.1 µM: 100%
[10]
  remaining binding at 0.1 µM: 100%
[11]
  remaining binding at 1 µM: 91%
[12]; PIK3CA(Q546K), 100 nM
  remaining binding at 0.1 µM: 100%
[12]; kinase PIK3CA(Q546K) (Entrez PIK3CA), compound concentration 1000 nM
  remaining binding at 1 µM: 96%
[13]
  remaining binding at 0.1 µM: 92%
[14]
  remaining binding at 1 µM: 86%
[15]; PRKG2, 100 nM
  remaining binding at 0.1 µM: 100%
[15]; kinase PRKG2 (Entrez PRKG2), compound concentration 1000 nM
  remaining binding at 1 µM: 100%
[16]
  remaining binding at 1 µM: 79%
[17]
  remaining binding at 0.1 µM: 100%
[18]
  remaining binding at 0.1 µM: 87%
[19]
  remaining binding at 1 µM: 85%
[20]
  remaining binding at 1 µM: 62%
[21]; NIM1 (Entrez MGC42105), 100 nM
  remaining binding at 0.1 µM: 100%
[21]; kinase NIM1 (Entrez MGC42105), compound concentration 1000 nM
  remaining binding at 1 µM: 86%
[22]; MYLK2, 100 nM
  remaining binding at 0.1 µM: 100%
[22]; kinase MYLK2 (Entrez MYLK2), compound concentration 1000 nM
  remaining binding at 1 µM: 91%
[23]
  remaining binding at 1 µM: 90%
[24]
  remaining binding at 0.1 µM: 82%
[25]
  remaining binding at 0.1 µM: 96%
[26]
  remaining binding at 1 µM: 100%
[27]
  remaining binding at 0.1 µM: 94%
[28]
  remaining binding at 0.1 µM: 100%
[29]
  remaining binding at 0.1 µM: 83%
